Laboratory results reported in patent US20250099448A1, “HETEROCYCLIC COMPOUNDS” (Hoffmann-La Roche Inc., priority 2022, published 2025).

target: T1, MAGL protein (Homo sapiens, UniProt Q99685); experiment: 2-AG assay: MAGL inhibitory activity by hydrolysis of 2-arachidonoylglycerol to arachidonic acid, followed by mass spectrometry; format: biochemical; conditions: 8 μM 2-arachidonoylglycerol, 15 min preincubation, 30 min reaction at RT, RapidFire MS readout
T1 sequence (Q99685 1-303): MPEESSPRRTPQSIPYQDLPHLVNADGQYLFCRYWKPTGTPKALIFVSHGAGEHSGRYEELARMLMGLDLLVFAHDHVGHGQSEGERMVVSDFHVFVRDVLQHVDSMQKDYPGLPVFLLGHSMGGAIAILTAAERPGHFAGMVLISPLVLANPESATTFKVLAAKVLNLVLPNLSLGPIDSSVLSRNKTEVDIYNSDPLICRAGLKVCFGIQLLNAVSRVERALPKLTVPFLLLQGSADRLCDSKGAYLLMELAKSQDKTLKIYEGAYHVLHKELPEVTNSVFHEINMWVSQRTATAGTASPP
Procedure, shortened: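 Activity was measured by RapidFire SPE–triple-quad MS as the ratio of arachidonic acid to d8-arachidonic acid after 2-AG hydrolysis (8 μM substrate, 30 min, RT, acetonitrile quench). Compounds, tested from 12.5 μM down to […], were first preincubated 15 min with MAGL in TRIS/EDTA/Tween-20 buffer containing 2.5% DMSO.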

Structure (SMILES)	IC50 [nM]
O=C(N1CC2(CC(c3nnc(C4CC4)[nH]3)C2)C1)N1CC2(C1)CN(S(=O)(=O)c1cc(F)cc(C(F)(F)F)c1)C2 [compound 101]	3.7
O=C(N1CC2(CC(c3nnc(C4CC4)[nH]3)C2)C1)N1CC2(C1)CN(S(=O)(=O)c1ccc(F)c(C(F)(F)F)c1)C2 [compound 102]	15
O=C(N1CC2(CC(c3nnc(C4CC4)[nH]3)C2)C1)N1CC2(C1)CN(S(=O)(=O)c1ccc(C(F)(F)F)cc1)C2 [compound 103]	25
O=C(N1CC2(CC(c3nnc(C4(O)CC4)[nH]3)C2)C1)N1CC2(C1)CN(S(=O)(=O)c1ccc(C(F)(F)F)cc1)C2 [compound 104]	198
O=C(N1CC2(CC(c3nnc(C4CC4)[nH]3)C2)C1)N1CC2(C1)CN(S(=O)(=O)c1ccc(F)cc1F)C2 [compound 105]	21.3
O=C(N1CC2(CC(c3nnc(C4CC4)[nH]3)C2)C1)N1CC2(C1)CN(S(=O)(=O)c1ccc(F)c(F)c1)C2 [compound 106]	20.6
O=C(N1CC2(CC(c3nnc(C4CC4)[nH]3)C2)C1)N1CC2(C1)CN(S(=O)(=O)c1ccc(F)cc1Cl)C2 [compound 107]	3.14
COc1ccccc1S(=O)(=O)N1CC2(CN(C(=O)N3CC4(CC(c5nnc(C6CC6)[nH]5)C4)C3)C2)C1 [compound 108]	34.1
O=C(N1CC2(CC(c3nnc(C4CC4)[nH]3)C2)C1)N1CC2(C1)CN(S(=O)(=O)c1cncc(C(F)(F)F)c1)C2 [compound 109]	20.1
O=C(N1CC2(CC(Cc3ccc(C(F)(F)F)cn3)C2)C1)N1CC2(CC(c3nnc(C4CCC4)[nH]3)C2)C1 [compound 112]	2.04
O=C(N1CC2(CC(Cc3ncc(F)cc3F)C2)C1)N1CC2(CC(c3nnc(C4(O)CC4)[nH]3)C2)C1 [compound 116]	2.39
CS(=O)(=O)c1ccc(CC2CC3(C2)CN(C(=O)N2CC4(CC(c5nnc(C6CC6)[nH]5)C4)C2)C3)nc1 [compound 119]	6.52
CS(=O)(=O)c1cncc(CC2CC3(C2)CN(C(=O)N2CC4(CC(c5nnc(C6CC6)[nH]5)C4)C2)C3)c1 [compound 120]	42
CS(=N)(=O)c1ccc(CC2CC3(C2)CN(C(=O)N2CC4(CC(c5nnc(C6CC6)[nH]5)C4)C2)C3)cc1 (centres unmarked) [compound 123]	3.98
CS(=N)(=O)c1cccc(CC2CC3(C2)CN(C(=O)N2CC4(CC(c5nnc(C6CC6)[nH]5)C4)C2)C3)c1 (centres unmarked) [compound 124]	2.46
O=C(N1CC2(CC(Oc3ccc(C(F)(F)F)nc3)C2)C1)N1CC2(CC(c3nnc(C4CC4)[nH]3)C2)C1 [compound 131]	2.79
O=C(N1CC2(CC(Oc3ccc(C(F)(F)F)nc3)C2)C1)N1CC2(CC(c3nnc(C4(O)CC4)[nH]3)C2)C1 [compound 132]	5.98
O=C(N1CC2(CC(Oc3cncc(C(F)(F)F)n3)C2)C1)N1CC2(CC(c3nnc(C4CC4)[nH]3)C2)C1 [compound 133]	1.73
O=C(N1CC2(CCC(Oc3ncc(C(F)(F)F)cn3)CC2)C1)N1CC2(CC(c3nnc(C4CC4)[nH]3)C2)C1 [compound 134]	1.89
O=C(N1CC2(CC(c3nnc(C4CC4)[nH]3)C2)C1)N1CC2(C1)CN(S(=O)(=O)C13CC(C(F)(F)F)(C1)C3)C2 [compound 135]	25.3
O=C(N1CC2(CCC(Cc3cnc(C(F)(F)F)cn3)CC2)C1)N1CC2(CC(c3nnc(C4(O)CC4)[nH]3)C2)C1 [compound 137]	6.79
O=C(N1CC2(CCC(Cc3ccc(Cl)cn3)CC2)C1)N1CC2(CC(c3nnc(C4(O)CC4)[nH]3)C2)C1 [compound 139]	3.87
O=C(N1CC2(CCC(Cc3ccc(C(F)(F)F)nc3)CC2)C1)N1CC2(CC(c3nnc(C4(O)CC4)[nH]3)C2)C1 [compound 141]	10.6
O=C(N1CC2(CCC(Cc3ncc(F)cc3F)CC2)C1)N1CC2(CC(c3nnc(C4CC4)[nH]3)C2)C1 [compound 142]	0.84
O=C(N1CC2(CCC(Cc3ncc(F)cc3F)CC2)C1)N1CC2(CC(c3nnc(C4(O)CC4)[nH]3)C2)C1 [compound 143]	14.5
O=C(N1CC2(CCC(Cc3ccc(F)cn3)CC2)C1)N1CC2(CC(c3nnc(C4(O)CC4)[nH]3)C2)C1 [compound 145]	12.6
O=C(N1CC2(CCC(Cc3ccc(OC(F)F)nc3)CC2)C1)N1CC2(CC(c3nnc(C4(O)CC4)[nH]3)C2)C1 [compound 146]	9.79
O=C(N1CC2(CC(c3nnc(C4CC4)[nH]3)C2)C1)N1CC2(CN(Cc3ccc(F)cc3F)C2)C1 [compound 156]	4.08
O=C(N1CC2(CC(c3nnc(C4(O)CC4)[nH]3)C2)C1)N1CC2(CN(Cc3ccc(F)cc3F)C2)C1 [compound 157]	15.8
O=C(N1CC2(CC(c3nnc(C4CC4)[nH]3)C2)C1)N1CC2(CN(Cc3cc(F)cc(F)c3)C2)C1 [compound 159]	6.08

The next compounds have a lower IC50 than those just listed; values first:

IC50 [nM]	Structure (SMILES)
0.21	O=C(N1CC2(CC(Cc3ccc(C(F)(F)F)cn3)C2)C1)N1CC2(CC(c3nnc(C4CC4)[nH]3)C2)C1 [compound 110]
0.6	O=C(N1CC2(CC(Cc3ccc(C(F)(F)F)cn3)C2)C1)N1CC2(CC(c3nnc(C4(O)CC4)[nH]3)C2)C1 [compound 111]
0.09	O=C(N1CC2(CC(Cc3cncc(Cl)c3)C2)C1)N1CC2(CC(c3nnc(C4CC4)[nH]3)C2)C1 [compound 113]
0.22	O=C(N1CC2(CC(Cc3cncc(C(F)(F)F)c3)C2)C1)N1CC2(CC(c3nnc(C4CC4)[nH]3)C2)C1 [compound 114]
0.2	O=C(N1CC2(CC(Cc3ncc(F)cc3F)C2)C1)N1CC2(CC(c3nnc(C4CC4)[nH]3)C2)C1 [compound 115]
0.1	O=C(N1CC2(CC(Cc3ncc(F)cc3Cl)C2)C1)N1CC2(CC(c3nnc(C4CC4)[nH]3)C2)C1 [compound 117]
0.19	O=C(N1CC2(CC(Cc3cc(C(F)(F)F)ccn3)C2)C1)N1CC2(CC(c3nnc(C4CC4)[nH]3)C2)C1 [compound 118]
0.01	O=C(N1CC2(CC(Cc3cc(F)cc(C(F)(F)F)c3)C2)C1)N1CC2(CC(c3nnc(C4CC4)[nH]3)C2)C1 [compound 121]
< 0.05	O=C(N1CC2(CC(Cc3cc(F)cc(C(F)(F)F)c3)C2)C1)N1CC2(CC(c3nnc(C4(O)CC4)[nH]3)C2)C1 [compound 122]
0.09	CS(=O)(=O)c1ccc(CC2CC3(C2)CN(C(=O)N2CC4(CC(c5nnc(C6CC6)[nH]5)C4)C2)C3)c(F)c1 [compound 130]
0.57	O=C(N1CC2(CCC(Cc3cnc(C(F)(F)F)cn3)CC2)C1)N1CC2(CC(c3nnc(C4CC4)[nH]3)C2)C1 [compound 136]
0.3	O=C(N1CC2(CCC(Cc3ccc(Cl)cn3)CC2)C1)N1CC2(CC(c3nnc(C4CC4)[nH]3)C2)C1 [compound 138]
0.31	O=C(N1CC2(CCC(Cc3ccc(C(F)(F)F)nc3)CC2)C1)N1CC2(CC(c3nnc(C4CC4)[nH]3)C2)C1 [compound 140]
0.63	O=C(N1CC2(CCC(Cc3ccc(F)cn3)CC2)C1)N1CC2(CC(c3nnc(C4CC4)[nH]3)C2)C1 [compound 144]
0.29	O=C(N1CC2(CCC(Cc3ncc(F)cc3F)C2)C1)N1CC2(CC(c3nnc(C4CC4)[nH]3)C2)C1 (centres unmarked) [compound 147]
0.43	O=C(N1CC2(CCC(Cc3ccc(C(F)(F)F)nc3)C2)C1)N1CC2(CC(c3nnc(C4CC4)[nH]3)C2)C1 (centres unmarked) [compound 152]
0.27	CS(=O)(=O)c1ccc(CC2CCC3(C2)CN(C(=O)N2CC4(CC(c5nnc(C6CC6)[nH]5)C4)C2)C3)cc1C(F)(F)F (centres unmarked) [compound 153]
